According to the supplement of paper PMC10307832:

Assays:
Assay in all cases: relative viability (nuclei count vs DMSO), 5 days (fraction); higher = more cells survive
Gemcitabine + Pemetrexed = compound: Nc1ccn([C@@H]2O[C@H](CO)[C@@H](O)C2(F)F)c(=O)n1 [Gemcitabine] + Nc1nc2[nH]cc(CCc3ccc(C(=O)N[C@@H](CCC(=O)O)C(=O)O)cc3)c2c(=O)[nH]1 [Pemetrexed] (partner 0.2 µM)
Outline: (§1)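 The day after seeding in 1536-well plates, lung cancer cell lines were treated by pin tool with a single drug, or with a fixed anchor-drug dose together with five library-drug doses (not always all listed) in √10 steps. After 5 days, a combined fix-and-stain solution (final 0.05% Triton X-100, 1% formaldehyde, 1 ug/ml Hoechst) was added. Nuclei counted on 4× images gave relative viability as treated counts over vehicle counts, reported as the median of duplicate plates.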

Gemcitabine + OSI-027 = compound: Nc1ccn([C@@H]2O[C@H](CO)[C@@H](O)C2(F)F)c(=O)n1 [Gemcitabine] + COc1cccc2cc(-c3nc([C@H]4CC[C@H](C(=O)O)CC4)n4ncnc(N)c34)[nH]c12 [OSI-027] (partner 0.5 µM)
Outline: as §1

Gemcitabine + Foretinib = compound: Nc1ccn([C@@H]2O[C@H](CO)[C@@H](O)C2(F)F)c(=O)n1 [Gemcitabine] + COc1cc2c(Oc3ccc(NC(=O)C4(C(=O)Nc5ccc(F)cc5)CC4)cc3F)ccnc2cc1OCCCN1CCOCC1 [Foretinib] (partner 0.25 µM)
Outline: as §1

Gemcitabine + AZD7762 = compound: Nc1ccn([C@@H]2O[C@H](CO)[C@@H](O)C2(F)F)c(=O)n1 [Gemcitabine] + NC(=O)Nc1cc(-c2cccc(F)c2)sc1C(=O)N[C@H]1CCCNC1 [AZD7762] (partner 0.2 µM)
Outline: as §1

| Cell Line | relative viability (Gemcitabine + Pemetrexed; first compound 0.001 µM) | relative viability (Gemcitabine + Pemetrexed; first compound 0.003162 µM) | relative viability (Gemcitabine + Pemetrexed; first compound 0.01 µM) | relative viability (Gemcitabine + Pemetrexed; first compound 0.03162 µM) | relative viability (Gemcitabine + Pemetrexed; first compound 0.1 µM) | relative viability (Gemcitabine + OSI-027; first compound 0.001 µM) | relative viability (Gemcitabine + OSI-027; first compound 0.003162 µM) | relative viability (Gemcitabine + OSI-027; first compound 0.01 µM) | relative viability (Gemcitabine + OSI-027; first compound 0.03162 µM) | relative viability (Gemcitabine + OSI-027; first compound 0.1 µM) | relative viability (Gemcitabine + Foretinib; first compound 0.001 µM) | relative viability (Gemcitabine + Foretinib; first compound 0.003162 µM) | relative viability (Gemcitabine + Foretinib; first compound 0.01 µM) | relative viability (Gemcitabine + Foretinib; first compound 0.03162 µM) | relative viability (Gemcitabine + Foretinib; first compound 0.1 µM) | relative viability (Gemcitabine + AZD7762; first compound 0.001 µM) | relative viability (Gemcitabine + AZD7762; first compound 0.003162 µM) | relative viability (Gemcitabine + AZD7762; first compound 0.01 µM) | relative viability (Gemcitabine + AZD7762; first compound 0.03162 µM) | relative viability (Gemcitabine + AZD7762; first compound 0.1 µM) |
| --- | --- | --- | --- | --- | --- | --- | --- | --- | --- | --- | --- | --- | --- | --- | --- | --- | --- | --- | --- | --- |
| UMC-11 | 0.814 | 0.769 | 0.747 | 0.676 | 0.403 | 0.474 | 0.474 | 0.478 | 0.352 | 0.197 | 1.17 | 1.1 | 0.948 | 0.764 | 0.391 | – | – | – | – | – |
| NCI-H1650 | 0.362 | 0.326 | 0.305 | 0.157 | 0.172 | 0.501 | 0.184 | 0.114 | 0.137 | 0.134 | 1.28 | 0.666 | 0.374 | 0.179 | 0.145 | – | – | – | – | – |
| EBC-1 | – | – | – | – | – | – | – | – | – | – | 0.0943 | 0.0886 | 0.0845 | 0.0844 | 0.0813 | – | – | – | – | – |
| SK-LU-1 | 1.01 | 0.434 | 0.252 | 0.2 | 0.237 | 0.352 | 0.208 | 0.146 | 0.165 | 0.143 | 0.728 | 0.441 | 0.217 | 0.168 | 0.164 | – | – | – | – | – |
| SK-MES-1 | 0.804 | 0.271 | 0.2 | 0.201 | 0.173 | 0.367 | 0.195 | 0.142 | 0.122 | 0.127 | 0.987 | 0.646 | 0.319 | 0.191 | 0.201 | – | – | – | – | – |
| NCI-H1792 | 0.773 | 0.174 | 0.0569 | 0.0984 | 0.0556 | 0.639 | 0.486 | 0.285 | 0.227 | 0.154 | – | – | – | – | – | 0.166 | 0.0355 | 0.0254 | 0.0229 | 0.033 |
| SW 1573 | 0.876 | 0.732 | 0.0969 | 0.0574 | 0.0459 | 0.512 | 0.381 | 0.0711 | 0.0797 | 0.0431 | 1.03 | 0.776 | 0.32 | 0.131 | 0.0835 | – | – | – | – | – |
| A549 | – | – | – | – | – | – | – | – | – | – | 0.998 | 0.901 | 0.616 | 0.0177 | 0.0104 | – | – | – | – | – |
| NCI-H1703 | – | – | – | – | – | – | – | – | – | – | 0.277 | 0.238 | 0.185 | 0.175 | 0.167 | 0.118 | 0.104 | 0.105 | 0.0773 | 0.0798 |
| NCI-H520 | 0.663 | 0.719 | 0.275 | 0.177 | 0.161 | 0.306 | 0.296 | 0.254 | 0.189 | 0.156 | 0.887 | 0.684 | 0.286 | 0.199 | 0.153 | – | – | – | – | – |
| NCI-H1563 | 0.748 | 0.852 | 0.833 | 0.407 | 0.414 | 0.761 | 0.726 | 0.631 | 0.5 | 0.545 | 0.948 | 0.916 | 0.706 | 0.566 | 0.526 | – | – | – | – | – |
| NCI-H2009 | 1.08 | 0.882 | 0.473 | 0.127 | 0.0868 | 0.566 | 0.303 | 0.167 | 0.133 | 0.111 | 1.26 | 0.938 | 0.404 | 0.185 | 0.153 | – | – | – | – | – |
